Values joined by “and” are separate entries in the source; they are usually repeats but may differ in a detail not shown here. Equal values may be shown once.
What follows are molecules tested against T1, Met receptor (EGFR/Met chimeric cells, EMR) (Homo sapiens, UniProt P08581) (assay: Met Autophosphorylation Assay). Conditions: not given.
T1 construct: expressed in transfected cells; the other entry of the earlier key: EGFR (P00533, Epidermal growth factor receptor)
Format: biochemical
In short: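 Transiently transfected EGFR/Met chimeric (EMR) cells were lysed in HNTG with 1 mM PMSF. Met was captured on plates coated with goat anti-rabbit IgG, then rabbit anti-Met (C-28), using 90 μg lysate/100 μl for 60 min at room temperature. Phosphotyrosine was read by ELISA.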

T1 sequence (P08581 with tags, fused parts or gaps): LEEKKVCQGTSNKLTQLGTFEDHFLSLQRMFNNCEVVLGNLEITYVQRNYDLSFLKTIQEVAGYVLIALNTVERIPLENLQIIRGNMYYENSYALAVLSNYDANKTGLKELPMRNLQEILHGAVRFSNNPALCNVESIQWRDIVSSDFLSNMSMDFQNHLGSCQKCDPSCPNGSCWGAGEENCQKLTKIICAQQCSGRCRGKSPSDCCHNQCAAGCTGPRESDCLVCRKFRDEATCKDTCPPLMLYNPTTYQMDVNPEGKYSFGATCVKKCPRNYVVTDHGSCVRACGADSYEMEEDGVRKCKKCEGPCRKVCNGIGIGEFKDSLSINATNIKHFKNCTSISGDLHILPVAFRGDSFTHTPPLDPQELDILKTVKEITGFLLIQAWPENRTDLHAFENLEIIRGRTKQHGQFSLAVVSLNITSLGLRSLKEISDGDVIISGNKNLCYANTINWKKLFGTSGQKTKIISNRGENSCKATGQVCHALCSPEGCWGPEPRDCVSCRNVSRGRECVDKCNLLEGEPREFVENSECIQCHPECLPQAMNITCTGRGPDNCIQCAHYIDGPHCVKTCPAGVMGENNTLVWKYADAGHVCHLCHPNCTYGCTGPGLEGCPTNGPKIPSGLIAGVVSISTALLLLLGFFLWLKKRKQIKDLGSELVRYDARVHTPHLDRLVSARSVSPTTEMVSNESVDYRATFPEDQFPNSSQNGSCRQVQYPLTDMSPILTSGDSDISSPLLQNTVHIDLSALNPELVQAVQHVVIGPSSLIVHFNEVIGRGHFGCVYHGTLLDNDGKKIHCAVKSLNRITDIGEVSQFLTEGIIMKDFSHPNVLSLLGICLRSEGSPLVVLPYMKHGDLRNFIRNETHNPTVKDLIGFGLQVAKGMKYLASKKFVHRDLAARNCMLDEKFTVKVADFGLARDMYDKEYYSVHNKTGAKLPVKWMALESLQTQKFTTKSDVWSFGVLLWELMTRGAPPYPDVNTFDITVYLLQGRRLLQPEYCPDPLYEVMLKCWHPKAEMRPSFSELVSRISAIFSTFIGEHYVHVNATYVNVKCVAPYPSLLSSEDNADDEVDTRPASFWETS

| SMILES | Met Kinase % Inhibition (P.130) [%] |
| --- | --- |
| CCOc1ccccc1C=C1C(=O)Nc2c(Br)cc(Br)c(C)c21 [10717/H02] | 44.5 |
| Cc1c(Br)cc(Br)c2c1C(=Cc1cccs1)C(=O)N2 [10717/H03] | 18.3 |
| Cc1c(Br)cc(Br)c2c1C(=Cc1cccn1C)C(=O)N2 [10717/H04] | 14.0 |
| COc1ccc(C=C2C(=O)Nc3c(Br)cc(Br)c(C)c32)cc1OC [10720/H04] | 21.3 |
| Cc1c(Br)cc(Br)c2c1C(=Cc1ccccc1O)C(=O)N2 [10720/H05] | 51.0 |
| Cc1c(Br)cc(Br)c2c1C(=Cc1ccccc1)C(=O)N2 [10720/H06] | 24.4 |
| CSc1ccc(C=C2C(=O)Nc3c(Br)cc(Br)c(C)c32)s1 [10720/H07] | 10.8 |
| Cc1cc(O)cc(O)c1C=C1C(=O)Nc2c(Br)cc(Br)c(C)c21 [10720/H08] | 40.0 |
| CCOc1cc(C=C2C(=O)Nc3c(Br)cc(Br)c(C)c32)ccc1O [10720/H09] | 49.0 |
| COc1ccc(O)c(C=C2C(=O)Nc3c(Br)cc(Br)c(C)c32)c1 [10720/H10] | 48.2 |
| Cc1c(Br)cc(Br)c2c1C(=Cc1ncc[nH]1)C(=O)N2 [10720/H11] | 28.0 |
| Cc1c(Br)cc(Br)c2c1C(=Cc1nc3ccccc3n1C)C(=O)N2 [10721/H02] | 39.7 |
| Cc1c(Br)cc(Br)c2c1C(=Cc1nn(C)cc1Cl)C(=O)N2 [10721/H03] | 21.3 |
| Cc1cc(C=C2C(=O)Nc3c(Br)cc(Br)c(C)c32)sc1C [10721/H04] | 72.9 |
| Cc1c(Br)cc(Br)c2c1C(=Cc1cc3c([nH]1)CCCC3)C(=O)N2 [10721/H05] | 33.6 |
| Cc1c(Br)cc(Br)c2c1C(=Cc1cc([N+](=O)[O-])cc(CCl)c1O)C(=O)N2 [10721/H06] | 90.3 |
| Cc1c(Br)cc(Br)c2c1C(=Cc1ccc(Cl)s1)C(=O)N2 [10721/H07] | 10.4 |
| Cc1cc(C)c(C=C2C(=O)Nc3c(Br)cc(Br)c(C)c32)[nH]1 [10721/H08] | 42.5 |
| Cc1c(Br)cc(Br)c2c1C(=Cc1ccc(O)c(C(C)(C)C)c1)C(=O)N2 [10721/H09] | 36.7 |
| Cc1c(Br)cc(Br)c2c1C(=Cc1cc(Br)c(O)c(C(C)(C)C)c1)C(=O)N2 [10721/H10] | 46.9 |
| Cc1c(Br)cc(Br)c2c1C(=Cc1cc(C(C)(C)C)c(O)c(C(C)(C)C)c1)C(=O)N2 [10721/H11] | 46.0 |
| Cc1c(Br)cc(Br)c2c1C(=Cc1cc([N+](=O)[O-])c(O)c(C(C)(C)C)c1)C(=O)N2 [10722/H02] | 37.8 |
| Cc1c(Br)cc(Br)c2c1C(=Cc1c(O)cc(O)cc1O)C(=O)N2 [10722/H03] | 100.5 |

| SMILES | Met Kinase % Inhibition (P.130) [%] |
| --- | --- |
| Cc1c(Br)cc(Br)c2c1C(=Cc1ccc([N+](=O)[O-])s1)C(=O)N2 [10722/H04] | 62.2 |
| Cc1c(Br)cc(Br)c2c1C(=Cc1ccc(C(=O)O)cc1)C(=O)N2 [10722/H05] | 83.2 |
| Cc1c(Br)cc(Br)c2c1C(=Cc1ccc(F)cc1F)C(=O)N2 [10722/H06] | 70.3 |
| Cc1cc(C=C2C(=O)Nc3c(Br)cc(Br)c(C)c32)cc(C)c1O [10722/H07] | 51.0 |
| Cc1c(Br)cc(Br)c2c1C(=Cc1cc(Cl)c(O)c(C(C)(C)C)c1)C(=O)N2 [10722/H08] | 72.6 |
| Cc1c(Br)cc(Br)c2c1C(=Cc1csc([N+](=O)[O-])c1)C(=O)N2 [10722/H09] | 67.6 |
| CCCCN(CCCC)c1ccc(C=C2C(=O)Nc3c(Br)cc(Br)c(C)c32)cc1 [10722/H10] | 30.3 |
| Cc1c(Br)cc(Br)c2c1C(=Cc1ccc(C(F)(F)F)cc1)C(=O)N2 [10722/H11] | 66.1 |
| Cc1c(Br)cc(Br)c2c1C(=Cc1ccc(O)c(O)c1O)C(=O)N2 [10723/H02] | 100.8 |
| COc1cccc(C=C2C(=O)Nc3c(Br)cc(Br)c(C)c32)c1O [10723/H03] | 69.2 |
| Cc1c(Br)cc(Br)c2c1C(=Cc1cc(O)c(O)c(Br)c1)C(=O)N2 [10723/H04] | 95.6 |
| CC(=O)Oc1ccc(C=C2C(=O)Nc3c(Br)cc(Br)c(C)c32)cc1OC(C)=O [10723/H05] | 64.2 |
| Cc1cc(C=C2C(=O)Nc3c(Br)cc(Br)c(C)c32)ccc1O [10723/H06] | 44.9 |
| Cc1c(Br)cc(Br)c2c1C(=Cc1ccccc1Br)C(=O)N2 [10723/H07] | 44.9 |
| Cc1c(Br)cc(Br)c2c1C(=Cc1ccc(O)cc1O)C(=O)N2 [10723/H08] | 86.2 |
| COc1ccc(C=C2C(=O)Nc3c(Br)cc(Br)c(C)c32)c(O)c1 [10723/H09] | 62.1 |
| Cc1c(Br)cc(Br)c2c1C(=Cc1cccc(Br)c1)C(=O)N2 [10723/H10] | 46.4 |
| Cc1c(Br)cc(Br)c2c1C(=Cc1cc(C(C)(C)C)cc(C(C)(C)C)c1O)C(=O)N2 [10723/H11] | 76.2 |
| Cc1c(Br)cc(Br)c2c1C(=Cc1ccc(N(C)C)c3ccccc13)C(=O)N2 [10724/H02] | 51.9 |
| Cc1c(Br)cc(Br)c2c1C(=Cc1ccc(O)c([N+](=O)[O-])c1)C(=O)N2 [10724/H03] | 26.1 |
| Cc1c(Br)cc(Br)c2c1C(=Cc1ccc([N+](=O)[O-])c(O)c1)C(=O)N2 [10724/H04] | 69.3 |
| Cc1c(Br)cc(Br)c2c1C(=Cc1cc3c4c(c1O)CCCN4CCC3)C(=O)N2 [10724/H05] | 68.6 |
| Cc1c(Br)cc(Br)c2c1C(=Cc1cc(C(C)C)c(O)c(C(C)C)c1)C(=O)N2 [10724/H06] | 32.8 |

| SMILES | Met Kinase % Inhibition (P.130) [%] |
| --- | --- |
| Cc1c(Br)cc(Br)c2c1C(=Cc1cc3ccccc3o1)C(=O)N2 [10724/H07] | 8.6 |
| COc1cc(O)c(C=C2C(=O)Nc3c(Br)cc(Br)c(C)c32)c(OC)c1 [10724/H08] | 65.8 |
| Cc1c(Br)cc(Br)c2c1C(=Cc1cccn1-c1ccc(Cl)cc1)C(=O)N2 [10724/H09] | 4.2 |
| CCc1ccc(C=C2C(=O)Nc3c(Br)cc(Br)c(C)c32)o1 [10724/H10] | 72.2 |
| Cc1c(Br)cc(Br)c2c1C(=Cc1sc3scc(C)c3c1C)C(=O)N2 [10724/H11] | 9.8 |
| Cc1c(Br)cc(Br)c2c1C(=Cc1sccc1Br)C(=O)N2 [10725/H02] | 15.8 |
| COc1ccc(Br)c(C=C2C(=O)Nc3c(Br)cc(Br)c(C)c32)c1O [10725/H03] | 58.3 |
| Cc1ccc(C=C2C(=O)Nc3c(Br)cc(Br)c(C)c32)o1 [10725/H04] | 47.1 |
| Cc1cc(C=C2C(=O)Nc3c(Br)cc(Br)c(C)c32)[nH]n1 [10725/H05] | 20.8 |
| COc1cc(C)cc(O)c1C=C1C(=O)Nc2c(Br)cc(Br)c(C)c21 [10725/H06] | 33.0 |
| Cc1c(Br)cc(Br)c2c1C(=Cc1ccc(N3CCN(C=O)CC3)cc1)C(=O)N2 [10725/H07] | 14.2 |
| Cc1c(Br)cc(Br)c2c1C(=Cc1ccc(N3CCOCC3)cc1)C(=O)N2 [10725/H08] | 5.7 |
| COC(=O)Cc1c(Cl)[nH]c(C=C2C(=O)Nc3c(Br)cc(Br)c(C)c32)c1C(=O)OC [10725/H09] | 41.6 |
| Cc1c(Br)cc(Br)c2c1C(=Cc1c(Br)cnn1-c1ccc(Cl)cc1)C(=O)N2 [10725/H10] | 21.8 |
| Cc1c(Br)cc(Br)c2c1C(=Cc1c[nH]cn1)C(=O)N2 [10725/H11] | 17.8 |
| Cc1c(Br)cc(Br)c2c1C(=Cc1ccccc1[N+](=O)[O-])C(=O)N2 [10726/H02] | 66.6 |
| CCOC(=O)c1[nH]c(C=C2C(=O)Nc3c(Br)cc(Br)c(C)c32)c(C(=O)OC)c1C [10726/H03] | 44.8 |
| Cc1cc(C=C2C(=O)Nc3c(Br)cc(Br)c(C)c32)cc(C(C)(C)C)c1O [10726/H04] | 77.6 |
| COc1cccc(C=C2C(=O)Nc3ccc(S(=O)(=O)N4CCOCC4)cc32)c1 [10736/F10] | 65.3 |
| O=C1Nc2ccc(S(=O)(=O)N3CCOCC3)cc2C1=Cc1ccccc1Cl [10736/F11] | 25.2 |
| O=C1Nc2ccc(CCCl)cc2C1=Cc1ccc(Cl)cc1 [10736/G02] | 48.3 |
| O=C1Nc2ccc(CCCl)cc2C1=Cc1ccccc1C(F)(F)F [10736/G03] | 0.6 |
| Cc1cccc(C=C2C(=O)Nc3ccc(CCCl)cc32)c1 [10736/G04] | −6.6 |

Same assay, conditions: protocol P.130

| SMILES | Met Kinase % Inhibition (P.130) |
| --- | --- |
| Cc1ccc(C=C2C(=O)Nc3ccc(CCCl)cc32)cc1 [10736/G05] | 0.0% and 1.3% |
| O=C1Nc2ccc(CCCl)cc2C1=Cc1cccc(F)c1 [10736/G07] | −0.2% |
| O=C1Nc2ccc(CCCl)cc2C1=Cc1ccccc1F [10736/G08] | 6.6% |
| CCc1ccc(C=C2C(=O)Nc3ccc(CCCl)cc32)cc1 [10736/G09] | 16.2% |
| COc1cccc(C=C2C(=O)Nc3ccc(CCCl)cc32)c1 [10736/G10] | 5.7% |
| O=C1Nc2ccc(CCCl)cc2C1=Cc1ccccc1Cl [10736/G11] | 10.3% |
| Cc1c(Br)cc(Br)c2c1C(=Cc1ccc(Cl)cc1)C(=O)N2 [10736/H02] | 62.8% |
| Cc1c(Br)cc(Br)c2c1C(=Cc1ccccc1C(F)(F)F)C(=O)N2 [10736/H03] | 27.7% |
| Cc1cccc(C=C2C(=O)Nc3c(Br)cc(Br)c(C)c32)c1 [10736/H04] | 27.2% |

— patent publication US20020026053A1, “Novel 3-(substituted) -2- indolinones compounds and use thereof as inhibitors of protein kinase activity” (priority 1997, published 2002)
